# Values quoted from earlier work, collected in US11896953B2, “HLB copolymers” (Sigma-Aldrich Co. LLC, priority 2017, dated 2024).
# Where two headings read alike, the source gives them in different places.
# [1] = analytes of the six analyte preliminary screen (Table 18)
# [2] = 20-analyte mix for extended screening (Table 22)
Compound,Log P [2],other results
"Oc1ccc2ccc(O)cc2c1 [2,7-dihydroxynaphthalene]",,Log P [1]: 2.3
N=C(N)NC(=O)c1nc(Cl)c(N)nc1N [Amiloride],−0.30,
CN(C)CCC=C1c2ccccc2CCc2ccccc21 [Amitriptyline],5.10,
CN1[C@H]2CC[C@@H]1[C@@H](C(=O)O)[C@@H](OC(=O)c1ccccc1)C2 [Benzoylecgonine],1.71,
CC[C@H]1OC(=O)[C@H](C)[C@@H](O[C@H]2C[C@@](C)(OC)[C@@H](O)[C@H](C)O2)[C@H](C)[C@@H](O[C@@H]2O[C@H](C)C[C@H](N(C)C)[C@H]2O)[C@](C)(OC)C[C@@H](C)C(=O)[C@H](C)[C@@H](O)[C@]1(C)O [Clarithromycin],3.16,
O=[N+]([O-])NC1=NCCN1Cc1ccc(Cl)nc1 [Imidacloprid],0.57,
CCCCc1nc(Cl)c(CO)n1Cc1ccc(-c2ccccc2-c2nn[nH]n2)cc1 [Losartan],6.10,
CN1CCCCC1CCN1c2ccccc2Sc2ccc([S+](C)[O-])cc21 (centres unmarked) [Mesoridazine],3.90,
CN(C)CCN(Cc1cccs1)c1ccccn1 [Methapyrilene],2.87,
CN1CCN2c3ccccc3Cc3ccccc3C2C1 (centres unmarked) [Mianserin],3.52,
CN1CCN2c3ncccc3Cc3ccccc3C2C1 (centres unmarked) [Mirtazapine],2.90,
CCc1nn(CCCN2CCN(c3cccc(Cl)c3)CC2)c(=O)n1CCOc1ccccc1 [Nefazodone],4.70,
Cc1ccnc2c1NC(=O)c1cccnc1N2C1CC1 [Nevirapine],2.50,
CNC(=C[N+](=O)[O-])NCCSCc1csc(CN(C)C)n1 [Nizatidine],1.10,
CNCCCC1c2ccccc2C=Cc2ccccc21 [Protriptyline],,Log P (eight analytes of the 3-step protocol evaluations (Table 25)): 4.70
C=CC#N [acrylonitrile],,log P (hydrophilic monomers): 0.25
Cc1ccc(C(N)=O)cc1 [p-Toluamide],,Log P [1]: 1.2
